Measured values: patent US20080293771A1, “AZACYCLYLBENZAMIDE DERIVATIVES AS HISTAMINE-3 ANTAGONISTS” (Wyeth, priority 2007, published 2008)
Counter-ions that a name gives are not always drawn.

Biological target: T1, Human Histamine H3 Receptor (Homo sapiens, UniProt Q9Y5N1)
T1 construct: expressed in transfected cells; host or cells: HEK293T (stably transfected; membrane preparation)
Experiment: Methyl histamine binding in Human Histamine H3 Receptor Cell Line
Conditions: read-out: hH3 Binding Ki
Experimental: Evaluation of Methyl histamine binding in Human Histamine H3 Receptor Cell Line
The affinity of test compounds for the histamine 3 (H3) receptor is evaluated in the following manner. […] Cells are scraped from the plate, transferred to centrifuge tubes, washed one time in PBS by centrifugation in a Sorvall RT7 Plus centrifuge (2000 rpm 10 minutes, 4° C.). The resulting pellets are stored at −80° C. until ready for use. Cells are re-suspended in buffer (50 mM Tris pH=7.5) and placed in a Dounce homogenizer, douncing ten times to homogenize cells. The homogenate is spun down by centrifugation (Sorvall RT7 Plus, 1800 rpm 10 minutes, 4° C.). The supernatant is placed in a Corex tube and spun down by centrifugation (Sorvall RC 5c Plus, 17,000 rpm 20 minutes, 4° C.). The pellet is resuspended in buffer (50 mM Tris, pH 7.5). Protein concentration (ug/ul) is determined using the Micro-BCA Protein Determination. The binding assay is set up in a 96 well microtiter plate in a total volume of 250 uL. Non-specific binding is determined in the presence of 10 uM clobenpropit. The final radioligand concentration is 1 nM. The test compound is serially diluted using the Beckman Biomek2000 to a final approximate range of 100 uM to 100 pM. Membranes are suspended in buffer, homogenized in 2 bursts of ten seconds using a Vitris mechanical homogenizer set at power setting 5. Ten μg of membranes are added to each well. Following a one hour incubation at 30° C., the reaction is terminated by the addition of ice cold buffer and rapid filtration with a Packard Filtermate Harvester through a GF/B filter pre-soaked with 1% PEI for one hour. The plate is dried for one hour at 37° C. and 60 μL Microscint Scintillant is added to each well. The CPM per well is measured on a Packard Top Count NXT. Ki values are determined in nM. […] CPM values are expressed as % specific binding and plotted vs compound concentration. A curve is fitted using a four-parameter logistic fit and the IC50 value is determined. The Ki is calculated from this using the Cheng-Prusoff equation: […]=IC50/1+(L/Kd) where L=concentration of free radioligand used in the assay, and Kd is the dissociation constant of the radioligand for the receptor. L is determined for each experiment by counting an aliquot of the diluted radioligand (corresponding to that added to each well) and the Kd has previously been determined under identical conditions for this cell line/radioligand.

T1 sequence (Q9Y5N1 whole entry): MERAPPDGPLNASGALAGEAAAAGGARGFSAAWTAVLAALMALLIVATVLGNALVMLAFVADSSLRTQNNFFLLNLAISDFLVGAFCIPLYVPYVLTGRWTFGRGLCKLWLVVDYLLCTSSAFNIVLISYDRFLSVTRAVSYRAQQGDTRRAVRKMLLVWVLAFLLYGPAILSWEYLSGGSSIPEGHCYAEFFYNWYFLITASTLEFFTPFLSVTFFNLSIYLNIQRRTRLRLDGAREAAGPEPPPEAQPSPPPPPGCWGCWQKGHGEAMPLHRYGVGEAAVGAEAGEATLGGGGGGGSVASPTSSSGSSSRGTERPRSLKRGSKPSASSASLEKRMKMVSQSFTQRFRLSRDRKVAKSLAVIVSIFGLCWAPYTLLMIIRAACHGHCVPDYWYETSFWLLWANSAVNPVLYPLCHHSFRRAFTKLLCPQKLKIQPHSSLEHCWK

Ki	Compound
> 100 nM	CN(C(=O)c1ccc(Cn2cnc3ccccc32)cc1)C1CCNCC1 [Example 45, 4-((1H-benzo[d]imidazol-1-yl)methyl)-n-methyl-N-(piperidin-4-yl)benzamide]
> 100 nM	Cc1nc2cc(C#N)ccc2n1-c1ccc(C(=O)N(C)[C@@H]2CCNC2)cc1 [Example 53, (R)-4-(5-cyano-2-methyl-benzoimidazol-1-yl)-N-methyl-N-pyrrolidin-3-yl-benzamide]
> 100 nM	CN(C(=O)c1ccc(-n2cc3ccccc3n2)cc1)C1CCN(C2CCC2)CC1 [Example 70, N-(1-cyclobutylpiperidin-4-yl)-4-(2H-indazol-2-yl)-N-methylbenzamide]
10.1 to 50 nM	Cc1nc2ccccc2n1-c1ccc(C(=O)N(C)[C@@H]2CCN(C(C)C)C2)cc1F [Example 103, 3-fluoro-N-methyl-4-(2-methyl-1H-benzimidazol-1-yl)-N-[(3R)-1-(1-methylethyl)pyrrolidin-3-yl]benzamide]
> 100 nM	CN(C(=O)c1ccc(-n2ncc3ccccc32)cc1)[C@@H]1CCNC1 [Example 60b, (R)-4-Indazol-1-yl-N-methyl-N-pyrrolidin-3-yl-benzamide]
50.1 to 100 nM	Cc1nc2ccccc2n1-c1ccc(C(=O)N(C)C2CCN(C3CCCC3)CC2)c(Cl)c1 [Example 122, 2-chloro-N-(1-cyclopentylpiperidin-4-yl)-N-methyl-4-(2-methyl-1H-benzimidazol-1-yl)benzamide]
50.1 to 100 nM	CC(C)N1CC[C@@H](N(C)C(=O)c2ccc(Cn3ncc4ccccc43)cc2)C1 [Example 76, 4-(1H-indazol-1-ylmethyl)-N-[(3R)-1-isopropylpyrrolidin-3-yl]-N-methylbenzamide]
10.1 to 50 nM	Cc1nc2ccccc2n1Cc1ccc(C(=O)N(C)[C@@H]2CCN(C3CCCCC3)C2)cc1 [Example 40, N-[(3R)-1-cyclohexylpyrrolidin-3-yl]-N-methyl-4-[(2-methyl-1H-benzimidazol-1-yl)methyl]benzamide]
> 100 nM	CN(C(=O)c1ccc(-n2ncc3ccccc32)cc1)C1CCN(C2CCC2)CC1 [Example 73, N-(1-cyclobutylpiperidin-4-yl)-4-(1H-indazol-1-yl)-N-methylbenzamide]
≤ 10 nM	Cc1nc2ccccc2n1-c1ccc(C(=O)N(C)C2CCN(C(C)C)CC2)cc1F [Example 119, 3-fluoro-N-methyl-4-(2-methyl-1H-benzimidazol-1-yl)-N-[1-(1-methylethyl)piperidin-4-yl]benzamide]
> 100 nM	CCN(C(=O)c1ccc(-n2c(C)nc3ccccc32)cc1)[C@@H]1CCN(C2CCCCC2)C1 [Example 142, N-[(3R)-1-cyclohexylpyrrolidin-3-yl]-N-ethyl-4-(2-methyl-1H-benzimidazol-1-yl)benzamide]
> 100 nM	Cc1nc2ccccc2n1-c1ccc(C(=O)N(C)C2CCNCC2)cc1 [Example 30, N-Methyl-4-(2-methylbenzimidazol-1-yl)-N-piperidin-4-yl-benzamide Hydrochloride]
> 100 nM	CN(C(=O)c1ccc(-n2cc3ccccc3n2)cc1)C1CCN(C2CCCC2)CC1 [Example 71, N-(1-cyclopentylpiperidin-4-yl)-4-(2H-indazol-2-yl)-N-methylbenzamide]
> 100 nM	CC(C)N1CCC(N(C)C(=O)c2ccc(Cn3cccn3)cc2)CC1 [Example 91, N-methyl-N-[1-(1-methylethyl)piperidin-4-yl]-4-(1H-pyrazol-1-ylmethyl)benzamide]
≤ 10 nM	CN(C(=O)c1ccc(-n2cc3ccccc3n2)cc1)[C@@H]1CCN(C2CCCC2)C1 [Example 63, N-[(3R)-1-cyclopentylpyrrolidin-3-yl]-4-(2H-indazol-2-yl)-N-methylbenzamide]
≤ 10 nM	CN(C(=O)c1ccc(-n2ncc3ccccc32)cc1)[C@@H]1CCN(C2CCC2)C1 [Example 65, N-[(3R)-1-cyclobutylpyrrolidin-3-yl]-4-(1H-indazol-1-yl)-N-methylbenzamide]
≤ 10 nM	Cc1nc2cc(C#N)ccc2n1-c1ccc(C(=O)N(C)[C@@H]2CCN(C(C)C)C2)cc1 [Example 54, 4-(5-cyano-2-methyl-1H-benzimidazol-1-yl)-N-[(3R)-1-isopropylpyrrolidin-3-yl]-N-methylbenzamide]
> 100 nM	CN(C(=O)c1ccc(-n2cccn2)cc1)C1CCN(C2CCC2)CC1 [Example 86, N-(1-cyclobutylpiperidin-4-yl)-N-methyl-4-(1H-pyrazol-1-yl)benzamide]
50.1 to 100 nM	CC(C)N1CCC(N(C)C(=O)c2ccc(-n3ncc4ccccc43)cc2)CC1 [Example 72, 4-(1H-indazol-1-yl)-N-(1-isopropylpiperidin-4-yl)-N-methylbenzamide]
> 100 nM	Cc1nc2ccccc2n1Cc1ccc(C(=O)N(C)C2CCNCC2)cc1 [Example 44, N-methyl-4-((2-methyl-1H-benzo[d]imidazol-1-yl)methyl)-N-(piperidin-4-yl)benzamide]
≤ 10 nM	Cc1nc2ccccc2n1-c1ccc(C(=O)N(C)C2CCN(C3CCCC3)CC2)cc1 [Example 32, N-(1-cyclopentylpiperidin-4-yl)-N-methyl-4-(2-methyl-1H-benzimidazol-1-yl)benzamide]
≤ 10 nM	Cc1nc2ccccc2n1-c1ccc(C(=O)N(C)C2CCN(C(C)C)CC2)c(Cl)c1 [Example 121, 2-chloro-N-methyl-4-(2-methyl-1H-benzimidazol-1-yl)-N-[1-(1-methylethyl)piperidin-4-yl]benzamide]
≤ 10 nM	Cc1nc2ccccc2n1-c1ccc(C(=O)N(C)C2CCN(C(C)C)CC2)cc1 [Example 31, N-(1-isopropylpiperidin-4-yl)-N-methyl-4-(2-methyl-1H-benzimidazol-1-yl)benzamide]
10.1 to 50 nM	Cc1nc2ccccc2n1-c1ccc(C(=O)N(C)[C@@H]2CCN(C3CCC3)C2)c(Cl)c1 [Example 106, 2-chloro-N-[(3R)-1-cyclobutylpyrrolidin-3-yl]-N-methyl-4-(2-methyl-1H-benzimidazol-1-yl)benzamide]
> 100 nM	CN(C(=O)c1ccc(Cn2ncc3ccccc32)cc1)C1CCN(C2CCC2)CC1 [Example 80, N-(1-cyclobutylpiperidin-4-yl)-4-(1H-indazol-1-ylmethyl)-N-methylbenzamide]

Tested on: not given
Experiment: not given
Conditions: not given

melting point	Compound
199 to 201 °C	CN(C(=O)c1ccc(Cn2cnc3ccccc32)cc1)C1CCNCC1 [Example 45, 4-((1H-benzo[d]imidazol-1-yl)methyl)-n-methyl-N-(piperidin-4-yl)benzamide]
178 to 180 °C	Cc1nc2cc(C#N)ccc2n1-c1ccc(C(=O)N(C)[C@@H]2CCNC2)cc1 [Example 53, (R)-4-(5-cyano-2-methyl-benzoimidazol-1-yl)-N-methyl-N-pyrrolidin-3-yl-benzamide]
196 to 198 °C	Cc1nc2ccccc2n1Cc1ccc(C(=O)N(C)C2CCNCC2)cc1 [Example 44, N-methyl-4-((2-methyl-1H-benzo[d]imidazol-1-yl)methyl)-N-(piperidin-4-yl)benzamide]
